ChEMBL document CHEMBL1154959, “The role of phosphate in the action of thymidine phosphorylase inhibitors: Implications for the catalytic mechanism” (Bioorg Med Chem Lett, 2010)
Active and inactive are the calls of the source. No cut-off for these calls is given here.

Key:
Thymidine phosphorylase = Thymidine phosphorylase (Escherichia coli K-12, UniProt P07650); assay: Inhibition of Escherichia coli thymidine phosphorylase
[1] = target: Thymidine phosphorylase (Escherichia coli K-12) (UniProt P07650); assay: Inhibition of Escherichia coli thymidine phosphorylase by spectrophotometry
Thymidine phosphorylase (Escherichia coli K-12), sequence (P07650 whole entry, looked up): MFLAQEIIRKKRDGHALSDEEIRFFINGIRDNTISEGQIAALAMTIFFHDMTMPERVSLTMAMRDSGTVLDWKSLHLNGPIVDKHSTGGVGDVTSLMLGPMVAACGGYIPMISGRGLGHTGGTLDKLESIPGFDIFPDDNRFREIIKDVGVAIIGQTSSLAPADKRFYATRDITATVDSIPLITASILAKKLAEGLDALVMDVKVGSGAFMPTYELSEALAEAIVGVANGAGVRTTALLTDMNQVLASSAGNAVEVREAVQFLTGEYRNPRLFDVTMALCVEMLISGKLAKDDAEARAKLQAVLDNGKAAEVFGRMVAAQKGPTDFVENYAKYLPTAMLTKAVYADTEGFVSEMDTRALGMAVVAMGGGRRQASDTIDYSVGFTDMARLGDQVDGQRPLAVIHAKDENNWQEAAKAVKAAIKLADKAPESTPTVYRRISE

Thymidine phosphorylase, sequence (P07650 whole entry): as the sequence (P07650 whole entry, looked up) above

Row | Structure (SMILES) | Ki (Thymidine phosphorylase) | Activity [1]
1 | O=c1[nH]c(Cn2ccnc2)c(F)c(=O)[nH]1 | 51 nM | 
2 | N=C1CCCN1Cc1[nH]c(=O)[nH]c(=O)c1Cl | 35 nM | 

Continued, values first:

Row | Ki (Thymidine phosphorylase) | Activity [1] | Structure (SMILES)
3 | 1000 nM |  | Cc1cn([C@@H]2O[C@H](CO)[C@H]3C[C@@H](CP(=O)(O)O)O[C@H]32)c(=O)[nH]c1=O
4 | 476000 nM |  | Nc1c(Br)c(=O)[nH]c(=O)n1CCCCCCCCP(=O)(O)O
5 | 11 nM | Active | Nc1nccn1Cc1[nH]c(=O)[nH]c(=O)c1F
